Where a name gives a salt, the structure may show the parent alone.
melting point | SMILES
104 to 117 °C | Cn1c(=O)c2c(nc(N3CC[C@H](N)C3)n2Cc2ccccc2C#N)n(C)c1=O (as salt: HCl) [Example 8, (S) 2-(8-(3-Aminopyrrolidin-1-yl)-1,3-dimethyl-2,6-dioxo-1,2,3,6-tetrahydropurin-7-ylmethyl)benzonitrile]
215 to 217 °C | Cn1c(=O)c2c(nc(N3CC[C@H](N)C3)n2Cc2ccccc2Br)n(C)c1=O (as salt: HCl) [Example 12, (S) 8-(3-Aminopyrrolidin-1-yl)-7-(2-bromobenzyl)-1,3-dimethyl-3,7-dihydropurine-2,6-dione]
166 to 169 °C | Cn1c(=O)c2c(nc(N3CC[C@H](N)C3)n2Cc2ccccc2)n(C)c1=O (as salt: HCl) [Example 3, (S) 8-(3-Aminopyrrolidin-1-yl)-7-benzyl-1,3-dimethyl-3,7-dihydropurine-2,6-dione]
